Consider 13 compounds from patent US11339130B1 (Blade Therapeutics, Inc., priority 2016, dated 2022).

Read-outs that look alike come from different tables or passages of the source.

The target in assay [1] is T1, Human Calpain 1/NS1 (Homo sapiens, UniProt P07384).
T1 sequence (P07384 1-714): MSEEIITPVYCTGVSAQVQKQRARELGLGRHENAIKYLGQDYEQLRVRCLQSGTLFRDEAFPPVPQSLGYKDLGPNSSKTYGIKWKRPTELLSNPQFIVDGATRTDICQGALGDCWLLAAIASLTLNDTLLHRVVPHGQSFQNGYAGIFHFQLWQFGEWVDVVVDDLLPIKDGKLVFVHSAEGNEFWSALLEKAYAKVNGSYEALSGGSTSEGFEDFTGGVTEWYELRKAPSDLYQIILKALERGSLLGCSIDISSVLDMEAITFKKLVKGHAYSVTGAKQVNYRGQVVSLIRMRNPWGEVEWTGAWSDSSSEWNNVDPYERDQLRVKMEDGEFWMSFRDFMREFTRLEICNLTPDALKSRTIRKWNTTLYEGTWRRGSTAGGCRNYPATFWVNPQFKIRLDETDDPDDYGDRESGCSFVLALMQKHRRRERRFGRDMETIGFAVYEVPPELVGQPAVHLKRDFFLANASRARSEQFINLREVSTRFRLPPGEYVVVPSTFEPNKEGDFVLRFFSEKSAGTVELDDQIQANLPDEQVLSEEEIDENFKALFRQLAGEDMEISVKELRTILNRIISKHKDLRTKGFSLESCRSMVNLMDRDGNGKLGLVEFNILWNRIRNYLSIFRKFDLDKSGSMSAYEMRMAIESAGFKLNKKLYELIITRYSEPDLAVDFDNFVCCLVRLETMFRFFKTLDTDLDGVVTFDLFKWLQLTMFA
T1 sequence (P04632 1-268 partner): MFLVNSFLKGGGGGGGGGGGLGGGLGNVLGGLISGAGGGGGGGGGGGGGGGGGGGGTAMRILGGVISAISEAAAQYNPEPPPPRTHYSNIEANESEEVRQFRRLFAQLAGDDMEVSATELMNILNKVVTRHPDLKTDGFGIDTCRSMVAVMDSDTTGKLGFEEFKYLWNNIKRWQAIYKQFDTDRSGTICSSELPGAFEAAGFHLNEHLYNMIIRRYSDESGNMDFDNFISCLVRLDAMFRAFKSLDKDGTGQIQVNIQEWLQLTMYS
The assay is described as follows: Calpain inhibition continuous fluorescence (FRET) assay, Human Calpain 1/NS1. The format is biochemical. As to conditions: read-out: Human Calpain 1/NS1 IC50. An outline of the steps: (§1)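 Calpain activity is measured kinetically with a quenched FRET peptide in 50 mM Tris pH 7.5, 100 mM NaCl, 1 mM DTT, with CaCl2 triggering activation. Rates over 1-5 min are plotted against log inhibitor to obtain IC50 by 4-parameter logistic fitting.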

Assay [2] has as its target T2, Human Calpain 2/NS1 (Homo sapiens, UniProt P17655).
T2 sequence (P17655 1-700): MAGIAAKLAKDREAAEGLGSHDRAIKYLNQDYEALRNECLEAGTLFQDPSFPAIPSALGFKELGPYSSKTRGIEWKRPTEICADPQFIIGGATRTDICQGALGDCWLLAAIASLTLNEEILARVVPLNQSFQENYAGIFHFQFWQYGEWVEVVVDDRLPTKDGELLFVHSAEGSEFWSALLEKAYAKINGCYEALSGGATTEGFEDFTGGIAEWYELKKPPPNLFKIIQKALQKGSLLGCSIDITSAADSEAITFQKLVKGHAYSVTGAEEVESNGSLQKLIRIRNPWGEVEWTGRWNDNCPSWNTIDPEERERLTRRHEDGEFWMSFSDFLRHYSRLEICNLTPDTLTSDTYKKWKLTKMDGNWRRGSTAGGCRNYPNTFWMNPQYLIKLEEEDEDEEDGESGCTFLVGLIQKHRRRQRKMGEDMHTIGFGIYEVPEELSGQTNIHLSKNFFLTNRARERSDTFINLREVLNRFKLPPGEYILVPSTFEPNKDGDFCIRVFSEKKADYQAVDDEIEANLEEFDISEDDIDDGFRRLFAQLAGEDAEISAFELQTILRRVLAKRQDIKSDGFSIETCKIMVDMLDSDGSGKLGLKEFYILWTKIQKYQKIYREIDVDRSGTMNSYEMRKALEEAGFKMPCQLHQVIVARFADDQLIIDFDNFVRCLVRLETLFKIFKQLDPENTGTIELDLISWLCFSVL
T2 sequence (P04632 1-268 partner): T1 sequence (P04632 1-268 partner)
The assay is described as follows: Calpain inhibition continuous fluorescence (FRET) assay, Human Calpain 2/NS1. The class given is biochemical. The conditions noted are these: read-out: Human Calpain 2/NS1 IC50. An outline of the steps:
as §1

Assay [3] concerns Calpain activity in SH-SY5Y cells. The assay is described as follows: SH-SY5Y + AMC fluorescence assay (Suc-LLVY-AMC substrate). As to conditions: read-out: SH-SY5Y + AMC IC50. The class given is cell-based.
For assay [4], the target named is T3, Human Calpain 9/NS1 (Homo sapiens, UniProt O14815).
T3 sequence (O14815 1-690): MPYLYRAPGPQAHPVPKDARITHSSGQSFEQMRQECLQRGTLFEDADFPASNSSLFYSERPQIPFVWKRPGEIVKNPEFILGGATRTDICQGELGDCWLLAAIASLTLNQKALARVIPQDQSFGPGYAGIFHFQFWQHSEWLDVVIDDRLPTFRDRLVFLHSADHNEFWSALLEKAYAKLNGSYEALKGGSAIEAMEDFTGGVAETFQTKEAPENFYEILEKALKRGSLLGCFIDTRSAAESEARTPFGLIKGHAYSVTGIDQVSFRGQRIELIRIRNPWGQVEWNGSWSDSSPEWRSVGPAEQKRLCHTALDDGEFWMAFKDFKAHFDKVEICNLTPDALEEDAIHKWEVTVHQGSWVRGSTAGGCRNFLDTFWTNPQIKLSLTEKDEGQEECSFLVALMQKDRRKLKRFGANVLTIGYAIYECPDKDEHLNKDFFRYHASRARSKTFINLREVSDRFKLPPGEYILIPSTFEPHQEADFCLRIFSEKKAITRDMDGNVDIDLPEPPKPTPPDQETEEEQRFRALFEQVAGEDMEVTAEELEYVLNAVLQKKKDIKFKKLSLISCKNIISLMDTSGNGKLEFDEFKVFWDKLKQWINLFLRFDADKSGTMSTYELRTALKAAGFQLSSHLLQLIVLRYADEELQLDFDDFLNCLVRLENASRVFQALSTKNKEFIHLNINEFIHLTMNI
T3 sequence (P04632 1-268 partner): T1 sequence (P04632 1-268 partner)
The assay is described as follows: Calpain inhibition continuous fluorescence (FRET) assay, Human Calpain 9/NS1. The class given is biochemical. The conditions noted are these: read-out: Human Calpain 9/NS1 IC50. An outline of the steps: as §1

The subject of assay [5] is Calpain activity in SH-SY5Y cells (SBDP-150). The assay is described as follows: SH-SY5Y Spectrin western blot assay (SBDP-150 breakdown product, A23187-induced). The format is cell-based. As to conditions: SH-SY5Y cells, read-out: SH-SY5Y Spectrin IC50.
The mark [6] stands for this setting: Homo sapiens, A23187-induced SBDP-150, western blot.
The mark [7] stands for this setting: Homo sapiens, Column D, A23187-induced SBDP-150.

Turning to `Cc1occ(C(=O)N[C@@H](Cc2ccccc2)C(=O)C(N)=O)c1-c1ccccc1` [Compound 430, (S)—N-(4-amino-3,4-dioxo-1-phenylbutan-2-yl)-5-methyl-4-phenylfuran-3-carboxamide], the IC50 in assay [1] is less than 3 µM; in assay [2] it was less than 3 µM; in assay [3], less than 10 µM; in assay [4], less than 3 µM; in assay [5] (setting [6]), less than 10 µM.

With `NC(=O)C(=O)[C@H](Cc1ccccc1)NC(=O)c1cncn1-c1ccc(-c2ccccc2)nn1` [Compound 200, (S)—N-(4-amino-3,4-dioxo-1-phenylbutan-2-yl)-1-(6-phenylpyridazin-3-yl)-1H-imidazole-5-carboxamide], the IC50 was less than 3 µM in assay [1] (Column A); less than 3 µM in assay [2] (Column B); greater than 25 µM in assay [3] (Column E); less than 3 µM in assay [4] (Column C); 10 to 25 µM in assay [5] (setting [7]).

Turning to `CCCCC(NC(=O)c1nsnc1-c1ccccc1)C(=O)C(N)=O` (centres unmarked) [Compound 467, N-(1-amino-1,2-dioxoheptan-3-yl)-4-phenyl-1,2,5-thiadiazole-3-carboxamide], the IC50 in assay [1] is less than 3 µM; in assay [2], less than 3 µM; in assay [3], greater than 25 µM; in assay [4] it was less than 3 µM; in assay [5] (setting [6]), less than 10 µM.

As for `Cc1cc(C(=O)NC(Cc2ccccc2)C(=O)C(N)=O)n(-c2ccnc(C3CC3)n2)n1` (centres unmarked) [Compound 352, N-(4-amino-3,4-dioxo-1-phenylbutan-2-yl)-1-(2-cyclopropylpyrimidin-4-yl)-3-methyl-1H-pyrazole-5-carboxamide], the IC50 in assay [1] is less than 3 µM; in assay [2], less than 3 µM; in assay [3] it was 10 to 25 µM; in assay [4], less than 3 µM; in assay [5] (setting [6]), greater than 25 µM.

As to “(S)—N-(4-amino-3,4-dioxo-1-phenylbutan-2-yl)-4-(2-fluorophenyl)-2-methyloxazole-5-carboxamide [Compound 267]”, the IC50 in assay [1] (Column A) is less than 3 µM; in assay [2] (Column B), less than 3 µM; in assay [3] (Column E) it was less than 10 µM; in assay [4] (Column C), less than 3 µM; in assay [5] (Column D, A23187-induced SBDP-150), 10 to 25 µM.

On to `Cc1cc(C(=O)N[C@@H](Cc2ccccc2)C(=O)C(N)=O)n(-c2nc(-c3ccccc3)cs2)n1` [Compound 82, (S)—N-(4-amino-3,4-dioxo-1-phenylbutan-2-yl)-3-methyl-1-(4-phenylthiazol-2-yl)-1H-pyrazole-5-carboxamide], for which the IC50 in assay [1] (Column A) was less than 3 µM; in assay [2] (Column B) it was less than 3 µM; in assay [3] (Column E), greater than 25 µM; in assay [4] (Column C), less than 3 µM; in assay [5] (setting [7]), less than 10 µM.

`Cc1nc(-c2ccccc2)c(C(=O)N[C@@H](Cc2ccccc2)C(=O)CF)o1` [Compound 475, (S)—N-(4-fluoro-3-oxo-1-phenylbutan-2-yl)-2-methyl-4-phenyloxazole-5-carboxamide]: the IC50 was 3 to 10 µM in assay [1]; less than 3 µM in assay [2]; greater than 25 µM in assay [3]; 3 to 10 µM in assay [4]; less than 10 µM in assay [5] (setting [6]).

Turning to `Cn1cc(C(=O)NC(Cc2ccccc2)C(=O)C(N)=O)c(-c2cccc3ccccc23)n1` (centres unmarked) [Compound 569, N-(4-amino-3,4-dioxo-1-phenylbutan-2-yl)-1-methyl-3-(naphthalen-1-yl)-1H-pyrazole-4-carboxamide], the IC50 was less than 3 µM in assay [1]; less than 3 µM in assay [2]; 10 to 25 µM in assay [3]; less than 3 µM in assay [4]; greater than 25 µM in assay [5] (setting [6]).

On to `Cc1ccc(-n2nc(C)cc2C(=O)N[C@@H](Cc2ccccc2)C(=O)C(N)=O)nc1` [Compound 120, (S)—N-(4-amino-3,4-dioxo-1-phenylbutan-2-yl)-3-methyl-1-(5-methylpyridin-2-yl)-1H-pyrazole-5-carboxamide], for which the IC50 in assay [1] (Column A) is less than 3 µM; in assay [2] (Column B) it was less than 3 µM; in assay [3] (Column E) it was 10 to 25 µM; in assay [4] (Column C), less than 3 µM; in assay [5] (setting [7]), less than 10 µM.

With `Cn1cc(C(=O)NC(Cc2ccccc2)C(=O)C(N)=O)c(-c2cccc(C(F)F)c2)n1` (centres unmarked) [Compound 508, N-(4-amino-3,4-dioxo-1-phenylbutan-2-yl)-3-(3-(difluoromethyl)phenyl)-1-methyl-1H-pyrazole-4-carboxamide], the IC50 in assay [1] was less than 3 µM; in assay [2], less than 3 µM; in assay [3], less than 10 µM; in assay [4], less than 3 µM; in assay [5] (setting [6]), less than 10 µM.

As to `NC(=O)C(=O)C(Cc1ccccc1)NC(=O)c1cnoc1-c1ccccc1F` (centres unmarked) [Compound 556, N-(4-amino-3,4-dioxo-1-phenylbutan-2-yl)-5-(2-fluorophenyl)isoxazole-4-carboxamide], the IC50 was less than 3 µM in assay [1]; less than 3 µM in assay [2]; less than 10 µM in assay [3]; less than 3 µM in assay [4]; less than 10 µM in assay [5] (setting [6]).

For `Cn1nc(Cl)c(C(=O)NC(Cc2ccccc2)C(=O)C(N)=O)c1Cl` (centres unmarked) [Compound 282, N-(4-amino-3,4-dioxo-1-phenylbutan-2-yl)-3,5-dichloro-1-methyl-1H-pyrazole-4-carboxamide], the IC50 in assay [1] (Column A) was less than 3 µM; in assay [2] (Column B), less than 3 µM; in assay [3] (Column E), less than 10 µM; in assay [4] (Column C), less than 3 µM; in assay [5] (setting [7]) it was 10 to 25 µM.

As to `Cn1cc(C(=O)NC(Cc2ccccc2)C(=O)C(N)=O)c(-c2cc3ccccc3cn2)n1` (centres unmarked) [Compound 602, N-(4-amino-3,4-dioxo-1-phenylbutan-2-yl)-3-(isoquinolin-3-yl)-1-methyl-1H-pyrazole-4-carboxamide], the IC50 in assay [1] was less than 3 µM; in assay [2], less than 3 µM; in assay [3] it was greater than 25 µM; in assay [4] it was less than 3 µM; in assay [5] (setting [6]), 10 to 25 µM.
